This is an account of results in patent US20250186452A1, “NOVEL USE OF QUINOLINE COMPOUND” (TARAPEUTICS SCIENCE INC., priority 2022, published 2025).

The test system of one data set is M-NSF-60. Briefly: Proliferation of M-NSF-60 cells with M-CSF (CCK-8, 72 hours). Format: cell-based, mouse. The conditions noted are these: Mus musculus; M-CSF 50 ng/ml in medium, 72 hours incubation, CCK-8; read-out: M-NSF-60 (GI50/μM). The method, then:
The incubated cells were detected by CCK-8 (purchased from MedChem Express, China) cell viability detection kit (CCK-8 can be reduced by dehydrogenases in living cells to a highly water-soluble yellow formazan product, and the amount of the generated formazan product is proportional to the number of living cells). The number of living cells was quantified by a microplate reader, and the GI50 for each compound was calculated (the results are shown in Table 2).

In data set [1] the test system is RAW264.7 cells. Briefly: Cell transformation experiment: IL-10 secretion of M2-induced RAW264.7 cells (ELISA). Format: cell-based, mouse. The method, then: (§1) RAW264.7 cells (purchased from ATCC, USA) were sucked up and down with a pipette, and the cells were added to a centrifuge tube, placed in a centrifuge, and centrifuged at 800 rpm for 4 minutes.
(In an ELISA, binding on a coated surface is turned into a signal by an enzyme label.)

In data set [2] the test system is RAW264.7 cells. Description: Cell transformation experiment: CD86 RNA level in M2-induced RAW264.7 cells (qPCR). Format: cell-based, mouse. The method, then:
as §1
In this experiment, an RNA extraction kit (purchased from Tiangen Biochemical Technology, China, catalog number: DP451) was used. RNA extraction was performed according to the instructions, and the concentration of RNA in the sample was detected using a NanoDrop nucleic acid concentration meter, and the RNA solution was diluted to the same concentration.
In this experiment, TakaRa One Step TB Green® PrimeScript™ PLUS RT-PCR Kit (purchased from TaKaRa Bio, catalog number: RR096A) was used, which contained the following components:
The procedure was as follows: • (1) The PCR primers were taken out and placed on ice. The primer sequences used were as follows: […]
• (3) After the RT-PCR reaction reagents were prepared, they were mixed, and the mixture was dispensed into 8-Strip Tubes. 2 μL of RNA sample was added to the tube, the bottom of the tube was gently tapped to mix the solution, and the tube was centrifuged in a centrifuge for a while. • (4) The fluorescence quantitative PCR instrument was turned on. […] Roche analysis software LightCycler® 96 SW 1.1 was used to analyze the data, and the analyzed data was imported into Graphpad Prism7.0 for drawing.

Another data set concerns MC38 cells. Briefly: In vivo efficacy in MC38 cell tumor transplantation mouse model. The method, then:
(§2) In this example, the experimental effects of Compound 2 and the control compound PLX3397 (purchased from MedChem Express, China) in MC38 and 4T1 mouse models were tested respectively.
(§3) The experimental procedure was as follows: • (1) C57BL/6J male mice for use as MC38 transplanted tumor model and Balb/c male mice for use as 4T1 transplanted tumor model, which were 6 weeks old, were purchased from GemPharmatech Co., Ltd, Jiangsu. All the above mice were raised in an SPF laboratory, and the drinking water and padding had been sterilized by high pressure sterilization. All operations related to mice were performed under sterile conditions. • (2) On day 0, approximately 1×10^6 MC38 cells (purchased from ATCC) were injected subcutaneously into the left back of each of the C57BL/6J mice, and approximately 1×10^6 4T1 cells (purchased from ATCC) were injected subcutaneously into the left back of each of the Balb/c mice. • (3) For the MC38 mouse model, starting from the 6th day, the corresponding mice were orally administered with methylcellulose (HKI) (purchased from China National Pharmaceutical Group Corporation) solvent once a day (5 mice); Compound 2 at a dose of 50 mg/kg mouse weight once a day (5 mice); PLX3397 at a dose of 50 mg/kg mouse weight once a day (5 mice). For the 4T1 mouse model, starting from the 6th day, the corresponding mice were orally administered with 10% HS-15 (purchased from BASF, Germany) solvent (5 mice); Compound 2 at a dose of 50 mg/kg mouse weight once a day (5 mice); PLX3397 at a dose of 50 mg/kg mouse weight once a day (5 mice). • (4) Starting from the 6th day, the length/width of the subcutaneous tumor was measured with a vernier caliper every day, and the weight of the mice was recorded every day to determine the effects of Compound 2 and control compound PLX3397 on the weight of mice in different model mice. The results are shown in FIGS. 3 and 6. • (5) The growth trends of subcutaneous tumors in mice of different models were statistically analyzed. The tumor volume was calculated using the following method: length×width×width/2 mm^3. The results are shown in FIGS. 4 and 7. • (6) Isolation of tumor-infiltrating lymphocytes: Tumor tissue was first minced (tissue block less than 1 mm^3) with a surgical blade, resuspended in 6 ml of digestion solution (collagenase IV and 0.005% DNaseI enzyme, both purchased from Sigma, USA), and the mixture was transferred to a 15-ml centrifuge tube. The centrifuge tube was then placed in a shaker at 37° C. and digested with shaking at 220 r/min for 2 hours. The cells were sieved through a 200-mesh sieve and collected in a 50-ml centrifuge tube, and centrifuged at 1500 rpm for 10 minutes. The supernatant was then discarded, and 10 ml of DMEM medium (10% FBS) (purchased from GIBCO, USA) was added to the tube to terminate the digestion. The tube was placed in a centrifuge, and centrifuged at 1500 rpm for another 10 minutes. The supernatant was discarded. At the same time, Percoll separation solution (purchased from Millipore, USA) was prepared, and 90% Percoll separation working solution was prepared using 10×PBS. To a 15 ml centrifuge tube, 3-4 ml of 70% Percoll separation solution was added. The cells were resuspended in 4 ml of 40% Percoll separation solution, and the cell mixture was added to the 70% Percoll separation solution. The centrifuge tube was placed in a centrifuge and subjected to density gradient centrifugation at 25° C., 1260 g, for 30 minutes (speed up 5, speed down 0). After the centrifugation, the centrifuge tube was placed on a centrifuge tube rack, the middle leukocyte layer was aspirated with a pipette, and added to 10 ml of PBS, they were mixed well and placed in a centrifuge, and centrifuged at 1500 rpm. The cell supernatant was discarded after 10 min and the cells were resuspended in 5 ml of PBS, centrifuged at 1500 rpm for another 10 min, and the washing process was repeated once. The cells obtained were leukocytes in the tumor tissue. […]

The test system of another data set is 4T1 cells. Description: In vivo efficacy in 4T1 cell tumor transplantation mouse model. The conditions noted are these: 4T1 model. The method, then:
as §2, §3

The mark [3] stands for this setting: 50 mg/kg oral once a day, as days of administration increased.

For the compound `COc1cc2nccc(Oc3ccc(NC(=O)Cc4ccc(Cl)c(C(F)(F)F)c4)cc3)c2cc1OC` [Example 2, N-(4-((6,7-dimethoxyquinolin-4-yl)oxy)phenyl)-2-(4-chloro-3-(trifluoromethyl)phenyl)-acetamide], the GI50 in the data set on M-NSF-60 was found to be 0.03 µM. For the same compound, in the data set with RAW264.7 cells [1] (1 μM, same dose as PLX3397 and BLZ945, FIG. 1), the “effect on IL-10 secretion compared with positive controls” value is “better for Compound 2 at 1 μM than positive controls PLX3397 and BLZ945”. Also, the “level of IL-10 secretion in M2 macrophages” value with RAW264.7 cells [1] (RAW264.7 induced with IL-4 or IL-13, treated 72 hours, serial dilutions, FIG. 1) is reported as “decreased in a dose-dependent manner”. In addition, the “effect on CD86 RNA level compared with positive controls” value with RAW264.7 cells [2] (1 μM, same dose as PLX3397 and BLZ945, FIG. 2) was “better for Compound 2 at 1 μM than positive controls PLX3397 and BLZ945”. The “RNA level of CD86” value in the data set on RAW264.7 cells [2] (RAW264.7 induced to M2, treated 72 hours, serial dilutions, FIG. 2) is given as “increased in a dose-dependent manner”. For the same compound, the “toxicity (mouse body weight)” value with MC38 cells (50 mg/kg oral once a day, FIG. 3) is “no obvious toxicity”; with 4T1 cells (50 mg/kg oral once a day, FIG. 6), “no obvious toxicity”. The “inhibition effect of mouse tumors” value is “good inhibition effect of mouse tumors” in the data set on MC38 cells (50 mg/kg oral once a day, FIG. 4) and “good inhibition effect of mouse tumors” in the data set with 4T1 cells (50 mg/kg oral once a day, FIG. 7). For the same compound, the “inhibitory effect on mouse tumors compared with PLX3397” value with MC38 cells (setting [3]) and with 4T1 cells (setting [3]) was “superior to the effect of the control compound PLX3397” throughout. Moreover, the “proportion of M1 macrophages around the tumor versus solvent group” value is reported as “much higher than that in the solvent group” in the data set with MC38 cells (50 mg/kg oral, flow cytometry, FIG. 5) and “much higher than that in the solvent group” in the data set with 4T1 cells (50 mg/kg oral, flow cytometry, FIG. 8). Further, the “proportion of M1 macrophages in the tumor microenvironment versus PLX3397 group” value in the data set with MC38 cells (same dose 50 mg/kg, FIG. 5) is “higher than that of the PLX3397 group”; in the data set on 4T1 cells (same dose 50 mg/kg, FIG. 8), “higher than that of the PLX3397 group”.
